Here are results for twelve molecules from patent US11834453B2, “Substituted pyrimido[5,4-d]pyrimidines as HER2 inhibitors” (Array BioPharma Inc., priority 2020, dated 2023).

Like-named read-outs stand apart in the source and are kept apart here.

One series has as its target EGFR wild type (EGFR WT) (Homo sapiens (Human), UniProt P00533). In words: Cellular phosphorylation assay, EGF-stimulated EGFR phosphorylation in engineered NIH 3T3 cells, Phospho-EGFR DuoSet IC ELISA, Assay 5. Format: cell-based. Summed up: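 NIH 3T3 cells expressing EGFR WT (20,000/well, attached overnight) were exposed to serially diluted compound for 1 h at 37 °C, then stimulated with 100 ng/ml rEGF for 10 min. Phospho-EGFR in lysates measured by sandwich ELISA optical density; IC50 from curves.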

The target of series [1] is ErbB2 with Exon 20 YVMA insertion (HER2-YVMA) (Homo sapiens (Human), UniProt P04626, INS775YVMA). The experiment in a line: Cellular phosphorylation assay, constitutive ErbB2 phosphorylation (Y1196) in engineered NIH 3T3 cells, Assay 4. The class given is cell-based. In short, it runs like this:
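Engineered NIH 3T3 cells expressing HER2-YVMA treated with compounds 1 h at 37 °C, then formaldehyde-fixed and methanol-permeabilized. pErbB2 Y1196 detected by in-cell infrared immunofluorescence, normalized to GAPDH. IC50 from the normalized curves.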

The target of the next series is MDR1 (P-gp) (Homo sapiens (Human), UniProt P08183). The experiment in a line: MDR1 transfected LLC-PK1 permeability/efflux, Assay 6. To be noted: pig.
The target of another series is EGFR (Homo sapiens (Human), UniProt P00533). The experiment in a line: ErbB enzyme assay (CisBio HTRF KinEASE-TK), Assay 3. The class given is biochemical. Summed up:
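Kinase + 250 nM biotin TK-substrate, 1 mM ATP, cpd (3-fold dil.), HEPES pH 7.4/10 mM MgCl2/0.01% Triton/2% DMSO; 30 min 22 °C. Quench w/ Sa-XL665 + TK-Ab-Cryptate, 1 h, HTRF. IC50 = 50 POC on 4PL fit.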
A general note: In TR-FRET formats the signal depends on donor and acceptor labels being close together.

Series [2] addresses ErbB2 insYVMA (HER2-YVMA, SEQ ID NO: 2) (Homo sapiens, UniProt P04626, INS775YVMA/P1170A). The experiment in a line: biochemical. To be noted: ErbB2 insYVMA enzyme assay.
For a further series, the target named is BCRP (Homo sapiens (Human), UniProt Q9UNQ0). In words: BCRP transfected MDCKII canine Mdr1 knockout permeability/efflux, Assay 9. To be noted: dog.
The next series deals with ErbB2 WT (Homo sapiens (Human), UniProt P04626). The experiment in a line: ErbB enzyme assay (CisBio HTRF KinEASE-TK), Assay 2. Format: biochemical. Summed up:
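ErbB2 phosphorylates 250 nM biotin-TK substrate at 1 mM ATP in 25 mM HEPES pH 7.4, 10 mM MgCl2, 0.01% Triton X-100 and 2% DMSO, for 30 min at 22 °C. Product is detected by HTRF with Sa-XL665 and TK-Ab-Cryptate. Percent of control is set by DMSO-only wells and pre-quenched wells.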

Where [3] appears, read: LLC-PK1, Assay 6 Pe Ratio, efflux ratio Papp(B-A)/Papp(A-B), MDR1 transfected LLC-PK1.
[4] abbreviates: Assay 9 Pe Ratio, efflux ratio Papp(B-A)/Papp(A-B), BCRP transfected MDCKII canine Mdr1 knockout.

Sequence of BCRP (Q9UNQ0 whole entry): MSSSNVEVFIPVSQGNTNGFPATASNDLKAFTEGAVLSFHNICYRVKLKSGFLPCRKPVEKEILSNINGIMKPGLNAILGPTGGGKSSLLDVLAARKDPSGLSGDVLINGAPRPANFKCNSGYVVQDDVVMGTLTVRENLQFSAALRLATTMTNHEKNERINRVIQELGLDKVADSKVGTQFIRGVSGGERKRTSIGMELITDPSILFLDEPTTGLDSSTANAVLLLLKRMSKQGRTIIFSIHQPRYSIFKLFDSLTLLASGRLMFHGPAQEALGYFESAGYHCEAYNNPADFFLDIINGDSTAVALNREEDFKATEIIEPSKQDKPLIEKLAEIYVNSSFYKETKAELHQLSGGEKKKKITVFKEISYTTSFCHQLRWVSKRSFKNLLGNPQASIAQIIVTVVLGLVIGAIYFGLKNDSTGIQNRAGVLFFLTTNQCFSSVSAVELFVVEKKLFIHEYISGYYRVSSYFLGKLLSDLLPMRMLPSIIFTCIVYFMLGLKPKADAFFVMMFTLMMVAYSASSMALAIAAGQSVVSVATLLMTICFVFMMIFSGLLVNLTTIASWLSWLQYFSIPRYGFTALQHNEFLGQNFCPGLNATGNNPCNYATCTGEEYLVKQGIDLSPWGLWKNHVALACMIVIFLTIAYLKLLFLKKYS
Sequence of ErbB2 with Exon 20 YVMA insertion (HER2-YVMA) (P04626 other isoform, or with tags, fused parts or gaps ins YVMA behind 775): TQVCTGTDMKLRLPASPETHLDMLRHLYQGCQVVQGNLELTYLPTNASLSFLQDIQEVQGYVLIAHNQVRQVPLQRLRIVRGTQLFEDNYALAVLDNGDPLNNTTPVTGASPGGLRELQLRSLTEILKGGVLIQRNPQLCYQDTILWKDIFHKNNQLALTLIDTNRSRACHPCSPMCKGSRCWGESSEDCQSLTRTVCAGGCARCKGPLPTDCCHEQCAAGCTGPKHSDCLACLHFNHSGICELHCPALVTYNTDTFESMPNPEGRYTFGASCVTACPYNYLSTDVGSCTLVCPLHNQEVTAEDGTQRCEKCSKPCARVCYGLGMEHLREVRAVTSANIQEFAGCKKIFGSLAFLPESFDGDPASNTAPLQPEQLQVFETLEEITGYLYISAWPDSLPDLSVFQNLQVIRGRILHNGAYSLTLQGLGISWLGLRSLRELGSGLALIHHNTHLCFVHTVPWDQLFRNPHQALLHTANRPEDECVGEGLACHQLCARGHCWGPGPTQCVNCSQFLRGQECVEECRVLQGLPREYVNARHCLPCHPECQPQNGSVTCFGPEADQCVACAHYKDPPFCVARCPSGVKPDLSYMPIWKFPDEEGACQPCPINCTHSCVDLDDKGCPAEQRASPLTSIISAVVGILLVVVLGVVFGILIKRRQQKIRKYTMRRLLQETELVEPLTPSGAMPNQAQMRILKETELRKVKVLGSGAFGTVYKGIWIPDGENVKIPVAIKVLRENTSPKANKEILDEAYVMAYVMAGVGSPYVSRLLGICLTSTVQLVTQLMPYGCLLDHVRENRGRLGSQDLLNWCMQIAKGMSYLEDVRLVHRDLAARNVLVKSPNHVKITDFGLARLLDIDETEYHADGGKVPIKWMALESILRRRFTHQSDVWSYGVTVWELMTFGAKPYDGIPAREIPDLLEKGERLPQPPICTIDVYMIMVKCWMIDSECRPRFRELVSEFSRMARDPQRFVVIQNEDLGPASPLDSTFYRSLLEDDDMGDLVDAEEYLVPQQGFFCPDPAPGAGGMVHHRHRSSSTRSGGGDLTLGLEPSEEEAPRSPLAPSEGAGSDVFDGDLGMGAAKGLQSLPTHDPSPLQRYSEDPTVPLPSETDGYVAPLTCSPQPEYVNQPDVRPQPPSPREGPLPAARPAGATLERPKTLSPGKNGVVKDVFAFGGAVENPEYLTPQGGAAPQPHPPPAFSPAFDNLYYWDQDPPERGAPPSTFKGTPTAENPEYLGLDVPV
Sequence of MDR1 (P-gp) (P08183 whole entry): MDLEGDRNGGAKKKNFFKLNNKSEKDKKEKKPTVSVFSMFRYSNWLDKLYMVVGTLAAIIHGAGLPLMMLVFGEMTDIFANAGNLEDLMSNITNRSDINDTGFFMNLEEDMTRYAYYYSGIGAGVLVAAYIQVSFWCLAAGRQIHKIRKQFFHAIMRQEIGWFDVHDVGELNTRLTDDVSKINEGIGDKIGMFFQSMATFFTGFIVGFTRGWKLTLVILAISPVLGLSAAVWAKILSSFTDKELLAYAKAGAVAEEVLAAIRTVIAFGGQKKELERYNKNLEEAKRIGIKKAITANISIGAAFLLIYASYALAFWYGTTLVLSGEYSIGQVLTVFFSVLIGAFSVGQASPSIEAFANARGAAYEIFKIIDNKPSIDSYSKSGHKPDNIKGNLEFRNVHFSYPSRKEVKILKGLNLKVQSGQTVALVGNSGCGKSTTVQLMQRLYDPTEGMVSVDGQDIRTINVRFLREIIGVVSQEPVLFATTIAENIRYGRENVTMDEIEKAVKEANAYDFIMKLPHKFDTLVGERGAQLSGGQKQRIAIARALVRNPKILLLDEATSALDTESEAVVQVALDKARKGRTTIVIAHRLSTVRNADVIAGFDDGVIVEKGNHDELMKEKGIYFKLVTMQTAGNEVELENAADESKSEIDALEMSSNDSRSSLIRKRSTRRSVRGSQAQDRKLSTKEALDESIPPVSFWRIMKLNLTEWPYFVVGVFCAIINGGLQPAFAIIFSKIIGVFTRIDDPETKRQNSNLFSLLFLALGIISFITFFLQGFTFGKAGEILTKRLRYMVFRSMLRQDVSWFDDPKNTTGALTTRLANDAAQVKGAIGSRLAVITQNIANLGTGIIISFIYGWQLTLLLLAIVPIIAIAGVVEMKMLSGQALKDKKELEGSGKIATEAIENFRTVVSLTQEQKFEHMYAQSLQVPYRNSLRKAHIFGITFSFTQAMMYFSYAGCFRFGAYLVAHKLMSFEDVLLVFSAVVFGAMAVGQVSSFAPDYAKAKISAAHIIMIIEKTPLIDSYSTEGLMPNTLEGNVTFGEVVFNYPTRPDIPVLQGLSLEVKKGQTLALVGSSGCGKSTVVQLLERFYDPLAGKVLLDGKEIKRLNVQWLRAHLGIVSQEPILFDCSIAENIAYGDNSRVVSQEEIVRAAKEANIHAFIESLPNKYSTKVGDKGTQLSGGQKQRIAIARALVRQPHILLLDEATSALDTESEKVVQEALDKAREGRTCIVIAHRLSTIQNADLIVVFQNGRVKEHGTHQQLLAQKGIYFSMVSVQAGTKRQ
Sequence of ErbB2 WT (P04626 23-1255): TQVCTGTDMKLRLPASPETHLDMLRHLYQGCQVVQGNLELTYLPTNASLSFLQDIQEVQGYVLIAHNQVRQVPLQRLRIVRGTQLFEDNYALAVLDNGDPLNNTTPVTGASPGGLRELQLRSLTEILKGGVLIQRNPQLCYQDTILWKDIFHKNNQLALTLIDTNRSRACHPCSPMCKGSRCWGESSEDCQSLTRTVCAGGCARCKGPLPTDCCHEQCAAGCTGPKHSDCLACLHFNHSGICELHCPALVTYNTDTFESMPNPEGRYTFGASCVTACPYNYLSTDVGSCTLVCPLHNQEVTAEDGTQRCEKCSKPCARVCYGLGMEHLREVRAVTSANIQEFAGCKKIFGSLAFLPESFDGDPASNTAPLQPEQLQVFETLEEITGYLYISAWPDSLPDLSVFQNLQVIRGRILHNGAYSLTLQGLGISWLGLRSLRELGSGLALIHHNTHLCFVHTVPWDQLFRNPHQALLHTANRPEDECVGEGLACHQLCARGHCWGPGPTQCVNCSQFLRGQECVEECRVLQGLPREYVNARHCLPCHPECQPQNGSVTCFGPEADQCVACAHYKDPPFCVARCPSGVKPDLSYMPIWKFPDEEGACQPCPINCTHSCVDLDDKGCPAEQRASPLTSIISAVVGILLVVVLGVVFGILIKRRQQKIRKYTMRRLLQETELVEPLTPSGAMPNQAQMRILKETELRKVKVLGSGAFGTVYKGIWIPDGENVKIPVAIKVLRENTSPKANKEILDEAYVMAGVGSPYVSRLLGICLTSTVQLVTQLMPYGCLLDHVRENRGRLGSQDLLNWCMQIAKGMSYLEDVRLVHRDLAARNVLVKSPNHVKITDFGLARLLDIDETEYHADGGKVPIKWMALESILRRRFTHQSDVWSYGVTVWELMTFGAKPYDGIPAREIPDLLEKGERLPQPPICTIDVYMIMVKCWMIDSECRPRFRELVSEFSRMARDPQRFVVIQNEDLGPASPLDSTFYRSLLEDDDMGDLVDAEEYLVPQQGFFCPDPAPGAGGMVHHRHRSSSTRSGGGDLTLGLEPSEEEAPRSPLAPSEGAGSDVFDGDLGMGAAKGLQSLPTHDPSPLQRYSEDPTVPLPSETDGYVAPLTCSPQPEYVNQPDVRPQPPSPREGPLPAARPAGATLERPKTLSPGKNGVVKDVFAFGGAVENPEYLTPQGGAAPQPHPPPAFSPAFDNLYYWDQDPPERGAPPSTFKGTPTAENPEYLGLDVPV

Turning to `Cc1cc(Nc2ncnc3cnc(N4C[C@H]5CC[C@@H]4CO5)nc23)ccc1Oc1ccc2c(c1)ncn2C` [Example 54, 6-((1R,4R)-2-oxa-5-azabicyclo[2.2.2]octan-5-yl)-N-(3-methyl-4-((1-methyl-1H-benzo[d]imidazol-5-yl)oxy)phenyl)pyrimido[5,4-d]pyrimidin-4-amine], the IC50 (in general, the point on the concentration scale where inhibition reaches its midpoint) on EGFR wild type (EGFR WT) was not below 5000 nM; in series [1], 17.8 nM; against EGFR, 3430 nM; in series [2] (read-out: Assay 1 IC50), 5.6 nM; on ErbB2 WT, 31.3 nM. The values for the efflux ratio at 2 h, 1 μM at MDR1 (P-gp) (setting [3]) and at BCRP (setting [4]) were 1.4 and 1.1, respectively.
Turning to `Cc1cc(Nc2ncnc3cnc(N(C)CC(F)F)nc23)ccc1Oc1ccc2c(c1)ncn2C` [Example 57, N2-(2,2-difluoroethyl)-N2-methyl-N8-(3-methyl-4-((1-methyl-1H-benzo[d]imidazol-5-yl)oxy)phenyl)pyrimido[5,4-d]pyrimidine-2,8-diamine], the IC50 on EGFR wild type (EGFR WT) was not below 5000 nM; in series [1], 9.4 nM; at EGFR it was 6630 nM; in series [2] (read-out: Assay 1 IC50), 30.2 nM; on ErbB2 WT, 37.7 nM. In addition, the values for the efflux ratio at 2 h, 1 μM on MDR1 (P-gp) (setting [3]) and at BCRP (setting [4]) were 1.1 and 1.4, respectively.
As for `Cc1cc(Nc2ncnc3cnc(N4C5CCC4COC5)nc23)ccc1Oc1ccc2c(c1)ncn2C` [Example 59, 6-(3-oxa-8-azabicyclo[3.2.1]octan-8-yl)-N-(3-methyl-4-((1-methyl-1H-benzo[d]imidazol-5-yl)oxy)phenyl)pyrimido[5,4-d]pyrimidin-4-amine], the IC50 against EGFR wild type (EGFR WT) is not below 5000 nM; in series [1] it was 23.5 nM; on EGFR, not below 10000 nM; in series [2] (read-out: Assay 1 IC50) it was 29.7 nM; on ErbB2 WT, 44.3 nM. The efflux ratio (as a rule, the permeability from basolateral to apical divided by that in the opposite direction, in the common usage) at 2 h, 1 μM amounted to 2 on MDR1 (P-gp) (setting [3]) and 7.4 on BCRP (setting [4]).
For the molecule `[2H]C([2H])([2H])Nc1ncc2ncnc(Nc3ccc(Oc4ccc5c(c4)ncn5C)c(C)c3)c2n1` [Example 65, N2-(methyl-d3)-N8-(3-methyl-4-((1-methyl-1H-benzo[d]imidazol-5-yl)oxy)phenyl)pyrimido[5,4-d]pyrimidine-2,8-diamine], the IC50 against EGFR wild type (EGFR WT) is not below 5000 nM; in series [1], 8.8 nM; at EGFR, 3000 nM; in series [2] (read-out: Assay 1 IC50) it was 8.6 nM; against ErbB2 WT, 23 nM. The efflux ratio at 2 h, 1 μM on MDR1 (P-gp) (setting [3]) stood at 1.6; on BCRP (setting [4]) it was 1.9.
Regarding `[2H]c1nc(Nc2ccc(Oc3ccc4c(c3)ncn4C)c(C)c2)c2nc(N3CCOCC3)nc([2H])c2n1` [Example 68, N-(3-methyl-4-((1-methyl-1H-benzo[d]imidazol-5-yl)oxy)phenyl)-6-morpholinopyrimido[5,4-d]pyrimidin-2,8-d2-4-amine], the IC50 against EGFR wild type (EGFR WT) is not below 5000 nM; in series [1] it was 10.7 nM; on EGFR, 8230 nM; in series [2] (read-out: Assay 1 IC50), 10.2 nM; at ErbB2 WT it was 16.3 nM. The efflux ratio at 2 h, 1 μM is 1.8 at MDR1 (P-gp) (setting [3]) and 0.9 at BCRP (setting [4]).
With `Cc1cc(Nc2ncnc3cnc(N4CCOCC4)nc23)ccc1Oc1cc(F)c2c(c1)ncn2C.O=C(O)C(F)(F)F` [Example 70, N-(4-((7-fluoro-1-methyl-1H-benzo[d]imidazol-5-yl)oxy)-3-methylphenyl)-6-morpholinopyrimido[5,4-d]pyrimidin-4-amine 2,2,2-trifluoroacetate], the IC50 on EGFR wild type (EGFR WT) was not below 5000 nM; in series [1], 4.9 nM; at EGFR it was not below 10000 nM; in series [2] (Assay 1 IC50 (nM)), 106 nM; against ErbB2 WT, 70.3 nM. The efflux ratio at 2 h, 1 μM was determined as 1.8 on MDR1 (P-gp) (setting [3]) and 1 on BCRP (setting [4]).
With `Cc1cc(Nc2ncnc3cnc(N4CCO[C@@H](C)C4)nc23)ccc1Oc1ccc2c(c1)ncn2C.O=C(O)C(F)(F)F` [Example 74, (S)—N-(3-methyl-4-((1-methyl-1H-benzo[d]imidazol-5-yl)oxy)phenyl)-6-(2-methylmorpholino)pyrimido[5,4-d]pyrimidin-4-amine 2,2,2-trifluoroacetate], the IC50 at EGFR wild type (EGFR WT) was not below 5000 nM; in series [1], 14.6 nM; against EGFR, 3720 nM; in series [2] (Assay 1 IC50 (nM)), 33 nM; against ErbB2 WT, 35.5 nM. Also, the efflux ratio at 2 h, 1 μM at MDR1 (P-gp) (LLC-PK1) was 1.7; on BCRP it was 1.3.
Consider `Cc1cc(Nc2ncnc3cnc(N4CC5CC4CO5)nc23)ccc1Oc1ccc2c(c1)ncn2C.O=C(O)C(F)(F)F` (stereo not drawn) [Example 77, 6-(2-oxa-5-azabicyclo[2.2.1]heptan-5-yl)-N-(3-methyl-4-((1-methyl-1H-benzo[d]imidazol-5-yl)oxy)phenyl)pyrimido[5,4-d]pyrimidin-4-amine 2,2,2-trifluoroacetate], for which the IC50 is not below 5000 nM against EGFR wild type (EGFR WT); 17.2 nM in series [1]; not below 10000 nM against EGFR; 26 nM in series [2] (Assay 1 IC50 (nM)); 48.9 nM against ErbB2 WT. Moreover, the efflux ratio at 2 h, 1 μM at MDR1 (P-gp) (setting [3]) is 1.7; on BCRP (setting [4]) it was 1.9.
As to `Cc1cc(Nc2ncnc3cnc(N4CCOCC4)nc23)c(F)cc1Oc1ccc2c(c1)ncn2C.O=C(O)C(F)(F)F` [Example 78, N-(2-fluoro-5-methyl-4-((1-methyl-1H-benzo[d]imidazol-5-yl)oxy)phenyl)-6-morpholinopyrimido[5,4-d]pyrimidin-4-amine 2,2,2-trifluoroacetate], the IC50 at EGFR wild type (EGFR WT) is not below 5000 nM; in series [1] it was 36.7 nM; at EGFR, not below 10000 nM; in series [2] (Assay 1 IC50 (nM)), 60.4 nM; at ErbB2 WT it was 422 nM. Also, the values for the efflux ratio at 2 h, 1 μM at MDR1 (P-gp) (setting [3]) and at BCRP (setting [4]) were 1.3 and 1.1, respectively.
Regarding `Cc1cc(Nc2ncnc3cnc(N4C(C)CCS4(=O)=O)nc23)ccc1Oc1ccc2c(c1)ncn2C.O=C(O)C(F)(F)F` (stereo not drawn) [Example 79, 3-methyl-2-(8-((3-methyl-4-((1-methyl-1H-benzo[d]imidazol-5-yl)oxy)phenyl)amino)pyrimido[5,4-d]pyrimidin-2-yl)isothiazolidine 1,1-dioxide 2,2,2-trifluoroacetate], the IC50 against EGFR wild type (EGFR WT) was not below 5000 nM; in series [1] it was 7.7 nM; on EGFR it was 3490 nM; in series [2] (Assay 1 IC50 (nM)), 26.3 nM; on ErbB2 WT, 33.8 nM. Besides, the efflux ratio at 2 h, 1 μM at MDR1 (P-gp) (setting [3]) is 7.1; on BCRP (setting [4]), 9.8.
Take `Cn1cnc2cc(Oc3ccc(Nc4ncnc5cnc(N6CCOCC6)nc45)cc3F)ccc21.O=C(O)C(F)(F)F` [Example 80, N-(3-fluoro-4-((1-methyl-1H-benzo[d]imidazol-5-yl)oxy)phenyl)-6-morpholinopyrimido[5,4-d]pyrimidin-4-amine 2,2,2-trifluoroacetate]: the IC50 at EGFR wild type (EGFR WT) was not below 5000 nM; in series [1] it was 47.1 nM; on EGFR, not below 10000 nM; in series [2] (Assay 1 IC50 (nM)), 35.6 nM; against ErbB2 WT, 431 nM. The values for the efflux ratio at 2 h, 1 μM on MDR1 (P-gp) (setting [3]) and on BCRP (setting [4]) were 2.1 and 2.4, respectively.
For the molecule `CNc1ncc2ncnc(Nc3ccc(Oc4cc(F)c5c(c4)ncn5C)c(C)c3)c2n1` [Example 88, N8-(4-((7-fluoro-1-methyl-1H-benzo[d]imidazol-5-yl)oxy)-3-methylphenyl)-N2-methylpyrimido[5,4-d]pyrimidine-2,8-diamine], the IC50 was not below 5000 nM against EGFR wild type (EGFR WT); 5.1 nM in series [1]; 9480 nM at EGFR; 4.8 nM in series [2] (read-out: Assay 1 IC50); 8.6 nM on ErbB2 WT. Further, the efflux ratio at 2 h, 1 μM at MDR1 (P-gp) (setting [3]) was determined as 1.9; on BCRP (setting [4]), 1.
